Experimental data taken from PubChem BioAssay (NCI).
Values joined by “and” are separate entries in the source; they are usually repeats but may differ in a detail not shown here. Identical values can stand only once.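 Step 1: Grow cells in 96-well plates. Step 2: Expose to compound for 48 hours at 5 concentrations. Step 3: Interpolate endpoints linearly; if unreached, use highest concentration. GI50: concentration for 50% inhibition of growth. TGI is the concentration that stops growth completely.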

How the values were obtained:
Assay in all cases: growth of human tumour cells (NCI), 48 h
[1] = test system: DU-145 prostate
[2] = test system: OVCAR-8 ovarian
[3] = test system: HCT-15 colon
[4] = test system: PC-3 prostate
[5] = test system: SW-620 colon
[6] = test system: HL-60(TB) leukemia
[7] = test system: SF-268 CNS
[8] = test system: SF-539 CNS
[9] = test system: RPMI-8226 leukemia
[10] = test system: NCI-H226 lung
[11] = test system: A498 renal
[12] = test system: KM20L2 colon

Row | Structure (SMILES) | TGI [1] | TGI [2] | TGI [3] | TGI [4] | TGI [5] | TGI [6] | TGI [7] | TGI [8] | TGI [9] | TGI [10] | TGI [11] | TGI [12] | GI50 [12] | GI50 [11] | GI50 [2] | GI50 [3] | GI50 [5] | GI50 [6] | GI50 [7]
1 | CCSc1nc(N)c2c(-c3ccc(OC)c(OC)c3)c3c(nc2n1)CCCC3 | > 100 µM | > 100 µM | > 100 µM | > 100 µM | > 100 µM | > 100 µM | > 100 µM | > 100 µM | > 100 µM |  |  |  |  |  |  |  |  |  | 
2 | CC1C(=O)OC2CC[N+]3(CC(=O)c4ccc(Br)cc4)CC=C(COC(=O)C(C)(O)C1(C)O)C23 (stereo unspecified) |  | > 17.4 µM | > 375 µM |  | > 375 µM | > 375 µM | > 375 µM | > 375 µM | > 375 µM | > 375 µM | > 375 µM | > 266 µM |  |  |  |  |  |  | 
3 | COC(=O)CCC(=O)CC(=O)C1=NS(=O)(=O)c2nc(S(N)(=O)=O)c(Cl)cc2N1 |  | > 100 µM | > 100 µM |  |  | > 100 µM | > 100 µM | > 100 µM | > 100 µM | > 100 µM | > 100 µM | > 100 µM |  |  |  |  |  |  | 
4 | N#C[S-].[Nd+3].c1cnc2c(c1)ccc1cccnc12.c1cnc2c(c1)ccc1cccnc12.c1cnc2c(c1)ccc1cccnc12 |  |  |  |  | 24.7 µM |  | 43 µM | 14 µM | > 100 µM | 5.91 µM | 13.6 µM | 15.3 µM | 1.11 µM |  |  |  |  |  | 
5 | CN(C)c1ccc(/C=C2/SC(=S)NC2=O)cc1 | > 100 µM | > 100 µM | > 100 µM | > 100 µM | > 100 µM | > 100 µM | > 100 µM | > 100 µM | > 100 µM | > 100 µM | > 100 µM |  |  |  |  |  |  |  | 
6 | Cc1cc(NC(=S)Nc2ccccc2)c(NC(=S)Nc2ccccc2)cc1C |  | > 100 µM | > 100 µM |  | > 100 µM | 5.23 µM | > 100 µM | 50.6 µM | 40.4 µM | > 100 µM | 98.3 µM | > 92 µM |  |  |  |  |  |  | 
7 | Nc1ccccc1CCCC(=O)O | > 100 µM | > 100 µM | > 100 µM | > 100 µM | > 100 µM | > 100 µM | > 100 µM | > 100 µM | > 100 µM | > 100 µM | > 100 µM |  |  |  |  |  |  |  | 
8 | CC(C)(C)NCc1cc(Nc2ccnc3cc(Cl)ccc23)cc(-c2ccc(Cl)cc2)c1O | 15 µM | 14.8 µM | 9.96 µM | 8.22 µM | 5.3 µM | 4.01 µM | 16.2 µM | 3.28 µM | 4.12 µM | 22.3 µM | 11.5 µM |  |  |  |  |  |  |  | 
9 | CC1=C(C)C(=O)O[C@@H]([C@](C)(O)[C@]2(O)CC[C@@]3(O)[C@@H]4C[C@H]5O[C@]56[C@@H](O)C=CC(=O)[C@]6(C)[C@H]4CC[C@]23C)C1 |  | 4.2 µM | 2.87 µM and 3.02 µM |  | 0.787 µM and 0.574 µM |  |  | 6.13 µM |  | 22 µM | 11.1 µM and 2.08 µM | 4 µM and 1.35 µM | 0.335 µM and 0.125 µM | 1.12 µM and 0.376 µM | 0.155 µM | 0.169 µM | 0.266 µM and 0.0856 µM | 0.0665 µM and 0.053 µM | 1.3 µM and 0.381 µM
10 | S=C1SC(=Nc2ccccc2)C(=Nc2ccccc2)N1c1ccccc1 | > 100 µM | > 100 µM | > 100 µM | > 100 µM |  |  |  |  | > 100 µM | > 100 µM | > 100 µM |  |  |  |  |  |  |  | 
11 | C[n+]1c2ccccc2c(CNc2ccc(S(=O)(=O)N=C(N)N)cc2)c2ccccc21 |  | 55.4 µM | 32.3 µM |  | 56.8 µM | 7.47 µM | > 100 µM | 17 µM | 23.5 µM | 10.9 µM | 86.2 µM | 59.6 µM |  |  |  |  |  |  | 
12 | COCO[C@@H]1C[C@H]2C(O)Nc3ccccc3C(=O)N2C1 (stereo partly specified) | > 100 µM | > 100 µM | > 100 µM | > 100 µM | > 100 µM | > 100 µM | > 100 µM | > 100 µM | > 100 µM | > 100 µM | > 100 µM |  |  |  |  |  |  |  | 
